Values joined by “and” are separate entries in the source; they are usually repeats but may differ in a detail not shown here. Identical values can stand only once.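 Five concentrations, 48 hours, 96-well plates. At the GI50, growth is halved. The concentration for full growth arrest is given as TGI.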
Key:
Test in all cases: NCI anticancer screen, dose series, 48 h
HOP-62 NSCLC = tested on: HOP-62 NSCLC
MALME-3M melanoma = tested on: MALME-3M melanoma
T-47D breast = tested on: T-47D breast
SK-OV-3 ovarian = tested on: SK-OV-3 ovarian
BT-549 breast = tested on: BT-549 breast
OVCAR-3 ovarian = tested on: OVCAR-3 ovarian
HCT-116 colon = tested on: HCT-116 colon
SK-MEL-2 melanoma = tested on: SK-MEL-2 melanoma
CAKI-1 renal = tested on: CAKI-1 renal
A498 renal = tested on: A498 renal

| SMILES | GI50 (HOP-62 NSCLC) | TGI (HOP-62 NSCLC) | GI50 (MALME-3M melanoma) | TGI (MALME-3M melanoma) | GI50 (T-47D breast) | TGI (T-47D breast) | GI50 (SK-OV-3 ovarian) | TGI (SK-OV-3 ovarian) | GI50 (BT-549 breast) | TGI (BT-549 breast) | GI50 (OVCAR-3 ovarian) | TGI (OVCAR-3 ovarian) | GI50 (HCT-116 colon) | TGI (HCT-116 colon) | GI50 (SK-MEL-2 melanoma) | TGI (SK-MEL-2 melanoma) | GI50 (CAKI-1 renal) | TGI (CAKI-1 renal) | GI50 (A498 renal) | TGI (A498 renal) |
| --- | --- | --- | --- | --- | --- | --- | --- | --- | --- | --- | --- | --- | --- | --- | --- | --- | --- | --- | --- | --- |
| FC(F)(F)c1ccc(NCc2nc3ccccc3[nH]2)cc1 | 28.8 µM | 96.4 µM | 23.9 µM | 69.5 µM | 26.5 µM | 80.6 µM | 45.5 µM | > 100 µM | 31.1 µM | 97.5 µM | 21.9 µM | 62.2 µM | 23 µM | 68.7 µM | 20.7 µM | 42.1 µM | 19.4 µM | 49.4 µM | 12.4 µM | 46.2 µM |
| N=C1C(c2nc3ccccc3s2)=C(O)CN1c1cc(Cl)cc(Cl)c1 | 46.7 µM | > 100 µM | 29.4 µM | > 100 µM | > 100 µM | > 100 µM | > 100 µM | > 100 µM | > 100 µM | > 100 µM | 88.2 µM | > 100 µM | 87.2 µM | > 100 µM | > 100 µM | > 100 µM | > 100 µM | > 100 µM | > 100 µM | > 100 µM |
| COc1cc(/C=C/c2ccccn2)cc(OC)c1OC | – | > 10 µM | – | > 10 µM | – | > 10 µM | – | > 10 µM | – | > 10 µM | – | > 10 µM | – | > 10 µM | – | > 10 µM | – | > 10 µM | – | > 10 µM |
| O=c1[nH]c(SCc2ccccc2[N+](=O)[O-])nc2nc[nH]c12 | – | > 100 µM | – | > 100 µM | – | > 100 µM | – | > 100 µM | – | > 100 µM | – | > 100 µM | – | > 100 µM | – | > 100 µM | – | > 100 µM | – | > 100 µM |
| Cn1cc(C2=C(c3c(S(C)=O)n(C)c4ccccc34)C(=O)NC2=O)c2ccccc21 (stereo not given) | 8.34 µM | > 25 µM | > 25 µM | > 25 µM | 8.35 µM | > 25 µM | 7.87 µM | > 25 µM | 4.88 µM | > 25 µM | 6.31 µM | 17.5 µM | 8.57 µM | > 25 µM | 7.88 µM | > 25 µM | 6.04 µM | > 25 µM | 4.03 µM | > 20.5 µM |
| Fc1ccc(C2C3CCOc4c(ccc5ccccc45)C3=NN2c2ccccc2)cc1 (stereo not given) | > 100 µM | > 100 µM | > 38.7 µM | > 100 µM | 25.4 µM | > 94.8 µM | > 100 µM | > 100 µM | > 100 µM | > 100 µM | 99.6 µM | > 100 µM | > 86.2 µM | > 100 µM | > 100 µM | > 100 µM | 64.2 µM | > 100 µM | > 100 µM | > 100 µM |
| OCc1ccc(N(Cc2ccc(F)cc2)CC2CCC2)cc1Cl | 10 µM | 22.7 µM | 16.3 µM | 31.8 µM | 2.11 µM | 12.2 µM | 14.8 µM | 27.9 µM | 17.5 µM | 32.3 µM | 5.28 µM | 17.5 µM | 1.85 µM | 11.5 µM | 11.2 µM | 25.2 µM | 2.04 µM | 8.51 µM | 0.092 µM | 0.34 µM |
| CC/C(=N/N=C(N)N)c1ccc(NC(=O)Nc2ccc(/C(CC)=N/N=C(N)N)cc2)cc1 | 10.7 µM | 42.6 µM | 8.24 µM | 54.5 µM | 5.81 µM | 74.1 µM | 16.5 µM | 64.5 µM | 3.83 µM | 21.1 µM | 6.19 µM | 32 µM | 5.72 µM | 25.5 µM | 4.03 µM | 31.2 µM | 15.1 µM | 39.4 µM | 36.3 µM | > 100 µM |
| COc1ccc(/C=C2/CN(CCC#N)C/C(=C\c3ccc(OC)cc3)C2=O)cc1 | 2.17 µM | 4.79 µM | 2.95 µM | 8.58 µM | 3.76 µM | > 100 µM | 5.24 µM | 51.8 µM | 2.1 µM | 4.73 µM | 2.79 µM | 7.46 µM | 0.829 µM | 2.38 µM | 2.72 µM | 7.15 µM | 2.82 µM | > 100 µM | 5.03 µM | 21.5 µM |
| COC(=O)c1ccc2c(C(=Nc3ccc(N(C)C(=O)CN4CCN(C)CC4)cc3)c3ccccc3)c(O)[nH]c2c1 | 1.36 µM and 2.32 µM | 12.2 µM and > 100 µM | 1.37 µM and 1.44 µM | 2.94 µM and 3.46 µM | 3.66 µM and 16.7 µM | 36.3 µM and > 100 µM | 12.3 µM and > 57.6 µM | 44.1 µM and > 100 µM | 6.6 µM and 11.7 µM | 22 µM and 29.7 µM | 7.08 µM and 19.9 µM | 16.1 µM and 47 µM | 1.58 µM and 1.48 µM | 3.06 µM and 2.97 µM | 8.11 µM and 3.6 µM | 19.1 µM and 8.86 µM | 4.28 µM and 11.9 µM | 25.3 µM and > 100 µM | 0.613 µM and 0.604 µM | 5.52 µM and 10.1 µM |
| CN1CCN(c2ccc(Nc3ncc4cc5n(c4n3)C3(CCCCC3)CNC5=O)nc2)CC1 | 1.06 µM | 12.8 µM | 0.866 µM | 15.4 µM | 4.15 µM | > 100 µM | 11.4 µM | 68.2 µM | 3.35 µM | 8.97 µM | 3.16 µM | 13.1 µM | 1.81 µM | 11 µM | 4.49 µM | 21.8 µM | 0.397 µM | 14.3 µM | 0.17 µM | 1.8 µM |
| CCN1C(=O)N(CC)C2C1NN=c1s/c(=C\c3ccc(OC)cc3)c(=O)n12 (stereo not given) | 0.381 µM | > 59.4 µM | 0.304 µM | > 100 µM | 0.163 µM | > 100 µM | 0.267 µM | 17.1 µM | 0.288 µM | > 25.1 µM | 0.114 µM | 0.526 µM | 0.188 µM | > 100 µM | 1.66 µM | > 100 µM | 0.0577 µM | > 80.2 µM | 0.0222 µM | 0.0924 µM |
| Cc1cc2c(cc1Cl)SC(C(=O)c1ccc(Cl)c(Cl)c1)NS2(=O)=O (stereo not given) | 39.3 µM | > 100 µM | 45.3 µM | > 100 µM | 19.9 µM | 49.9 µM | 33.7 µM | 91.4 µM | 29.8 µM | 56.5 µM | 40.7 µM | > 100 µM | 21.9 µM | 40.8 µM | 40.2 µM | > 100 µM | 97.4 µM | > 100 µM | 70.5 µM | > 100 µM |
| CCc1ccc([O-])c(C=NCCCN(C)CCCN=Cc2cc(C)ccc2[O-])c1.[Co+3].[N-]=[N+]=[N-] | 10.5 µg/mL and 12 µg/mL | 50 µg/mL and 34.5 µg/mL | 50 µg/mL and 82.6 µg/mL | 50 µg/mL and > 150 µg/mL | 40 µg/mL | 50 µg/mL | 12.9 µg/mL and 37.3 µg/mL | 50 µg/mL and 85.9 µg/mL | 50 µg/mL | 50 µg/mL | 50 µg/mL and 71.1 µg/mL | 50 µg/mL and > 150 µg/mL | 50 µg/mL and 56.2 µg/mL | 50 µg/mL and > 150 µg/mL | 50 µg/mL and 44.7 µg/mL | 50 µg/mL and 135 µg/mL | 50 µg/mL and 66.9 µg/mL | 50 µg/mL and > 150 µg/mL | 50 µg/mL and 79.7 µg/mL | 50 µg/mL and 127 µg/mL |
| COc1ccc(-c2nc3sccn3c2-c2ccnc(NCCCNS(=O)(=O)c3ccc(F)cc3)n2)cc1 | 4.15 µM | 23.7 µM | 2.6 µM | 7.86 µM | 0.866 µM | 4.87 µM | 3.93 µM | > 100 µM | 2.19 µM | 8.27 µM | 2.96 µM | 48.7 µM | 3.19 µM | 24.4 µM | 2.32 µM | 6.75 µM | 2.5 µM | 7.29 µM | 2.6 µM | > 100 µM |
| CS(=O)(=O)N1CCc2c(-c3cnc(N)nc3)nc(N3CCOCC3)nc21 | 1.26 µM and 0.795 µM | > 10 µM and 11.8 µM | 0.619 µM and 0.488 µM | > 6.87 µM and 4.87 µM | 0.041 µM and 0.0468 µM | 0.399 µM and 0.463 µM | 0.128 µM and 0.166 µM | 0.692 µM and 1.37 µM | 0.51 µM and 0.479 µM | 6.08 µM and 6.39 µM | 0.59 µM and 0.641 µM | > 21.4 µM | 0.571 µM and 0.553 µM | > 100 µM | 1.28 µM and 1.77 µM | 8.66 µM and 14 µM | 0.484 µM and 0.651 µM | > 10 µM and 7.76 µM | 0.203 µM and 0.101 µM | 0.836 µM and 0.447 µM |
| O=c1c2cc(O)c(O)cc2oc2cc(O)c(C3OC(CO)C(O)C(O)C3O)c(O)c12 (stereo not given) | – | > 100 µM | – | > 100 µM | – | > 100 µM | – | > 100 µM | – | > 100 µM | – | > 100 µM | – | > 100 µM | – | > 100 µM | – | > 100 µM | – | > 100 µM |
| CC[C@@]1(O)C(=O)NCc2c1cc1n(c2=O)Cc2cc3c(NC(C)=O)cccc3nc2-1 | > 100 µM | > 100 µM | > 100 µM | > 100 µM | > 100 µM | > 100 µM | > 100 µM | > 100 µM | > 100 µM | > 100 µM | > 100 µM | > 100 µM | > 100 µM | > 100 µM | > 100 µM | > 100 µM | > 100 µM | > 100 µM | > 100 µM | > 100 µM |
| CNc1ncc2cc(-c3cc(NC(=O)NCCC(C)(C)C)c(F)cc3C)c(C)nc2n1 | 0.195 µM and 0.298 µM | 12.7 µM and > 10 µM | < 0.01 µM and 0.00462 µM | < 0.011 µM and 0.0522 µM | 0.819 µM and 1.51 µM | 25.1 µM and > 10 µM | 0.359 µM and 0.431 µM | 4.36 µM and 5.87 µM | 3.29 µM and 2.49 µM | > 100 µM | 1.93 µM and 1.89 µM | > 100 µM | 0.0805 µM and 0.0858 µM | 11.8 µM and > 10 µM | 0.0277 µM and 0.0426 µM | 0.143 µM and 0.265 µM | 0.437 µM and 0.2 µM | > 100 µM | 0.149 µM and 0.167 µM | 0.743 µM and 0.65 µM |

— PubChem BioAssay (NCI)
